Data: ChEMBL document CHEMBL1154471, “Lanostane-type triterpenoids from the sclerotia of Inonotus obliquus possessing anti-tumor promoting activity” (Eur J Med Chem, 2008)
Each block holds one molecule with its values, some of them ahead of it.

Assays:
Mus musculus [1] = experiment: Inhibition of DMBA-induced/TPA-promoted carcinogenesis in mouse assessed as number of mouse bearing papillomas at 85 nmol administered twice weekly after 1 week of initiation for 11 weeks; assay type: functional; parameters: scale not given: the % may be the effect or the level left
Mus musculus [2] = experiment: Inhibition of DMBA-induced/TPA-promoted carcinogenesis in mouse assessed as number of mouse bearing papillomas at 85 nmol administered twice weekly after 1 week of initiation for 20 weeks; assay type: functional; parameters: scale not given: the % may be the effect or the level left
Raji [3] = experiment: Inhibition of TPA-induced EBV-early antigen activation in human Raji cells assessed as EA activation at 1000 molar ratio after 48 hrs relative to TPA; assay type: cell-based; parameters: scale not given: the % may be the effect or the level left; details: human gammaherpesvirus 4
Raji [4] = experiment: Inhibition of TPA-induced EBV-early antigen activation in human Raji cells assessed as EA activation at 500 molar ratio after 48 hrs relative to TPA; assay type: cell-based; parameters: scale not given: the % may be the effect or the level left; details: human gammaherpesvirus 4
Raji [5] = experiment: Inhibition of TPA-induced EBV-early antigen activation in human Raji cells assessed as EA activation at 100 molar ratio […] relative to TPA; assay type: cell-based; parameters: scale not given: the % may be the effect or the level left; details: human gammaherpesvirus 4
Raji [6] = experiment: Inhibition of TPA-induced EBV-early antigen activation in human Raji cells assessed as EA activation at 10 molar ratio […] relative to TPA; assay type: cell-based; parameters: scale not given: the % may be the effect or the level left; details: human gammaherpesvirus 4
[7] = Inhibition of TPA-induced EBV-early antigen activation in human Raji cells assessed as EA activation; assay type: cell-based, human gammaherpesvirus 4
[8] = Cytotoxicity against human Raji cells assessed as cell viability at 1000 molar ratio by trypan blue staining relative to control; assay type: cell-based; details: read-out: Activity
Mus musculus [9] = experiment: Inhibition of DMBA-induced/TPA-promoted carcinogenesis in mouse assessed as number of skin papillomas per mouse at 85 nmol administered twice weekly after 1 week of initiation for 11 weeks; assay type: functional
Mus musculus [10] = experiment: Inhibition of DMBA-induced/TPA-promoted carcinogenesis in mouse assessed as number of skin papillomas per mouse at 85 nmol administered twice weekly after 1 week of initiation for 20 weeks; assay type: functional

Structure (SMILES): CC(C)=CCC[C@@H](C=O)[C@H]1CC[C@@]2(C)C3=C(CC[C@]12C)[C@@]1(C)CC[C@H](O)C(C)(C)[C@@H]1CC3
Activity (Mus musculus [1]): 33.3%
Activity (Mus musculus [2]): 73.3%
Activity (Raji [3]): 0%
Activity (Raji [4]): 35.1%
Activity (Raji [5]): 64%
Activity (Raji [6]): 90.4%
IC50 [7]: 232 molar ratio
viability at 1000 molar ratio [8]: 70%
Activity (Mus musculus [9]): 1.2
Activity (Mus musculus [10]): 3.8

IC50 [7]: 231 molar ratio
Structure (SMILES): C[C@H]([C@H](O)/C=C/C(C)(C)O)[C@H]1CC[C@@]2(C)C3=C(CC[C@]12C)[C@@]1(C)CC[C@H](O)C(C)(C)[C@@H]1CC3
Activity (Raji [3]): 0%
Activity (Raji [4]): 26.9%
Activity (Raji [5]): 69.8%
Activity (Raji [6]): 89.2%
viability at 1000 molar ratio [8]: 70%

IC50 [7]: 228 molar ratio
Structure (SMILES): C[C@H]([C@H](O)/C=C/C(C)(C)O)[C@H]1CC[C@@]2(C)C3=CC[C@H]4C(C)(C)[C@@H](O)CC[C@]4(C)C3=CC[C@]12C
Activity (Raji [3]): 0%
Activity (Raji [4]): 25.1%
Activity (Raji [5]): 67.3%
Activity (Raji [6]): 88.2%
viability at 1000 molar ratio [8]: 70%

IC50 [7]: 392 molar ratio
Structure (SMILES): CC(C)=CCC[C@@H](CO)[C@H]1CC[C@@]2(C)C3=C(CC[C@]12C)[C@@]1(C)CC[C@H](O)C(C)(C)[C@@H]1CC3
Activity (Raji [3]): 10.9%
Activity (Raji [4]): 47.1%
Activity (Raji [5]): 77.5%
Activity (Raji [6]): 100%
viability at 1000 molar ratio [8]: 70%

IC50 [7]: 389 molar ratio
Structure (SMILES): CC1(C)CC[C@]2(C(=O)O)CC[C@]3(C)C(=CC[C@@H]4[C@@]5(C)CC[C@H](O)C(C)(C)[C@@H]5CC[C@]43C)[C@@H]2C1 [OLEANOLIC_ACID]
Activity (Raji [3]): 12.7%
Activity (Raji [4]): 30%
Activity (Raji [5]): 80%
Activity (Raji [6]): 100%
